Data reported in patent US10322125B2, “TGF-beta enhancing compositions for cartilage repair and methods related thereto” (EMORY UNIVERSITY, priority 2013, dated 2019).

Test system: 3TP-Lux luciferase reporter (TGF-β-responsive region of the PAI-1 gene) in C2C12 cells
Assay: C2C12 cell-based Dual-Luciferase reporter screening assay for TGF-β activity (3TP-Lux)
Parameters: species or system mouse
Settings: FIG. 6
Protocol: The C2C12 cells, a mouse myoblast cell line, were obtained from the American Type Culture Collection (ATCC, Manassas, 8 VA). Cells were grown in Dulbecco's modified Eagle medium (DMEM, Gibco Life Technologies, Rockville, Md.) with 10% non heat inactivated fetal bovine serum (Atlanta Biologicals, Norcross, Ga.). The C2C12 cells at passages 4 to 7 were subcultured in T-75 cm2 flasks at 37° C. in a humidified atmosphere containing 5% CO2. When the flasks reached 80% confluence, the cells were trypsinized and seeded in triplicate at 50,000 cells/well in a 12-well plate for the Dual-Luciferase reporter assay.
The C2C12 cells were seeded at a 50,000 cell/well in 12-well plates on day 1. […]
For each well, a total of 1 μg DNA was used for the cotransfection and concentration of pGL4.74 Renilla luciferase vector was 1/15 of 3TP-Lux reporter plasmid. […] On day 5, the luciferase activity was measured using the luciferase assay kit (Promega, Madison, Wis.) according to the manufacturer's instructions on a luminescence reader (VictorTMX Light, PerkinElmer Life and Analytical Sciences, Waltham, Mass.). […]

“TGF-β: Transforming growth factor beta, a secreted protein; cells were treated with TGF-β1 in the reporter assay” was tested, and the “reporter response at higher TGF-β doses” value (doses ranging from 10 ng/ml to 100 ng/ml of TGF-β, compared with 5 ng/ml dose, DMSO instead of compounds) was “did not increase reporter response beyond 5 ng/ml dose” and the “TGF-β dose at which maximum reporter response was reached” value (luciferase reporter assay, DMSO solvent instead of compounds) was 5 ng/mL.
